The values below come from ChEMBL document CHEMBL1201862, “PubChem BioAssay data set” (2004).

Assay [1] deals with T1, Tyrosine-protein phosphatase non-receptor type 7 (Homo sapiens, UniProt P35236).
T1 sequence (P35236 whole entry): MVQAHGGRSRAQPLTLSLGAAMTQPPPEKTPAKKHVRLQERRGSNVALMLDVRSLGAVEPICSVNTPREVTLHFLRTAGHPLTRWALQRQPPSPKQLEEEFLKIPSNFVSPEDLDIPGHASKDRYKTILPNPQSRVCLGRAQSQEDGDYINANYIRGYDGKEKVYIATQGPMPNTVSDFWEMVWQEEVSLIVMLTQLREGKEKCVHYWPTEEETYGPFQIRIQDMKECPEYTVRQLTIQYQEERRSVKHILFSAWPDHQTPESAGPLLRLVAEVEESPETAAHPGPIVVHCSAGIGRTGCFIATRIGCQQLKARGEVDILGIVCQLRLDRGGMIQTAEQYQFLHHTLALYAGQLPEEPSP
Put plainly: inhibition of hematopoietic tyrosine phosphatase HePTP – biochemical, set 2, SAR follow-up (AID 449736). It counts as functional.

Assay [2] has as its target T2, Voltage-gated N-type calcium channel alpha-1B subunit/Amyloid beta A4 precursor protein-binding family A member 1 (Homo sapiens, UniProt Q00975+Q02410). It counts as protein assay.
The target of assay [3] is T3, Mannose-6-phosphate isomerase (Homo sapiens, UniProt P34949).
T3 sequence (P34949 whole entry): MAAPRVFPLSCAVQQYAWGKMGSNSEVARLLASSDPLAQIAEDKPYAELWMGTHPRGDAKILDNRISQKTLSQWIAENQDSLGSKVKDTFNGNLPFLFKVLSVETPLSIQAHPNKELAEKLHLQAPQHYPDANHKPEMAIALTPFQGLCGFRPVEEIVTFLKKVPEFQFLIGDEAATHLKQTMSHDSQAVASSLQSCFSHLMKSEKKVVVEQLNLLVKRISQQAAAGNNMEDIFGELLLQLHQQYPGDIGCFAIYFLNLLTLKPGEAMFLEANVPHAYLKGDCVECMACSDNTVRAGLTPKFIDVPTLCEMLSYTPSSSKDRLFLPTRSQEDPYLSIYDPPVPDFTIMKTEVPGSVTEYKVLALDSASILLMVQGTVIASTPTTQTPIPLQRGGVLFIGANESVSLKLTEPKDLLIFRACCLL
As to the kind of experiment: MPI enzyme activity inhibition – biochemical, fluorescence intensity, coupled assay, primary screen (AID 1209).

The next assay concerns the target Large T antigen (Simian virus 40, UniProt P03070). It counts as functional, Betapolyomavirus macacae.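 Further: Confirmatory-stage PubChem screen for compounds that inhibit SV40 T antigen.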
Assay [4] can be described thus: viability of PTEN-deleted HCT116 cells – cell-based, HCT116 PTEN knockout, dose response (AID 1047).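 Further: HCT116 colon tumor cells with PTEN knocked out; cells exposed to compound for 60 hours before readout; potency for loss of cell viability measured by luminescence.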 It counts as functional.
Assay [5] in a line: Fluorescence-based cell-based high throughput dose response assay for inhibitors of the interaction of nucleotide-binding oligomerization domain containing 2 (NOD2) and the receptor-interacting serine-threonine kinase 2 (RIPK2). It counts as functional. The conditions noted are these: Homo sapiens.
A further assay addresses Beta-galactosidase (Escherichia coli, UniProt Q8VNN2). As to the kind of experiment: detection-enzyme interference by beta-gal modulators – biochemical, E. coli enzyme, set 3, artefact control for CCR6 antagonist project, dose response (AID 504712). In kind it is functional.
Assay [6] has as its target Glucose-6-phosphate 1-dehydrogenase (Homo sapiens, UniProt P11413). As to the kind of experiment: inhibition of Homo sapiens G6PD, dose series – biochemical, fluorescence, selectivity assay for P. falciparum G6PD inhibitor project, dose response (AID 504792). It counts as functional.
A short description of assay [7]: viability of HCT116 lacking mutant beta-catenin – cell-based, human colon tumor, dose response (AID 1045).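 Further: HCT116 colon tumor cells with beta catenin knocked out; cells exposed to compound for 60 hours.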 In kind it is functional.
Assay [8] concerns the target T2, Voltage-gated N-type calcium channel alpha-1B subunit/Amyloid beta A4 precursor protein-binding family A member 1. In kind it is protein assay. The source holds these as a separate data set.
Assay [9] is described as follows: antiviral efficacy and BSC cell toxicity – BSC cells, SV40 T antigen inhibitor project, confirmation (AID 2615). In kind it is functional, cell-based.
For a further assay, the target named is T4, Coagulation factor XII (Homo sapiens, UniProt P00748).
T4 sequence (P00748 whole entry): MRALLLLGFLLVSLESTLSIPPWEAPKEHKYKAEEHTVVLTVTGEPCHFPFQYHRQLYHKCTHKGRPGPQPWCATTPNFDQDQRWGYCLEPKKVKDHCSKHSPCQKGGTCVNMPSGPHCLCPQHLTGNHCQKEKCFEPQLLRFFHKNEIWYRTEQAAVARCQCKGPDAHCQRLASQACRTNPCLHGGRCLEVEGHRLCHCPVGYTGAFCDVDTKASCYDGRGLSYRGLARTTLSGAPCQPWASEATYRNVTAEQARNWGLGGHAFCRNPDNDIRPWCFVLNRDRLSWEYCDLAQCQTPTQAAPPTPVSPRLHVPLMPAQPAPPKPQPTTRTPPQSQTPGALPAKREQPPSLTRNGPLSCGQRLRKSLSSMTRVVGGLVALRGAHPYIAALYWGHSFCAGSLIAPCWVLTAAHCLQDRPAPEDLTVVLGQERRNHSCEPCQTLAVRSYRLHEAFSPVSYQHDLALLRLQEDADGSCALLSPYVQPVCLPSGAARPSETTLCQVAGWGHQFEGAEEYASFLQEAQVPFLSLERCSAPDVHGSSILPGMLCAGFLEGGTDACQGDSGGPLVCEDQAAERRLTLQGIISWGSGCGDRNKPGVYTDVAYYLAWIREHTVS
As to the kind of experiment: activated coagulation factor XII inhibitor potency, concentration-effect curve, cell-free (AID 716). It counts as functional.

For assay [10], the target named is Delta-type opioid receptor (Homo sapiens, UniProt P41143). As to the kind of experiment: SAR Analysis of Antagonists of the DOR Receptor using an Image-Based Assay - Set 2. [Related pubchem assays (depositor defined):AID1777, AID1785, AID1786, AID1966, AID2133, AID2136, AID2284, AID2285, AID2357]. In kind it is functional.
Assay [11] has as its target T5, Kappa-type opioid receptor (Homo sapiens, UniProt P41145). Put plainly: SAR analysis of Antagonists of the Kappa Opioid Receptor (KOR) using an Image-Based Assay - Set 2. [Related pubchem assays (depositor defined):AID1777, AID1785, AID1786, AID1966, AID2133, AID2136, AID2284, AID2285, AID2348]. It counts as functional.
For assay [12], the target named is T5, Kappa-type opioid receptor. As to the kind of experiment: SAR analysis of small molecule agonists of the kappa opioid receptor via a luminescent beta-arrestin assay - Set 2. [Related pubchem assays (depositor defined):AID1777, AID1785, AID1786, AID1966, AID2133, AID2136, AID2284, AID449737]. In kind it is functional.
The nature of assay [13]: HIV-1 AD8 envelope cell-cell fusion blockers – cherry-pick, dose response (AID 652062).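 Further: luciferase signal from cell-cell fusion driven by HIV-1 clade B AD8 Env; potency is for inhibitors of fusion seen as a drop in luminescence.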 It counts as functional, cell-based.
A short description of assay [14]: blockers of HIV-1 ZM109 envelope-driven cell-cell fusion – HeLa effector, CEM target cells, luciferase, cherry-pick, dose response (AID 652058).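 Further: luciferase signal from HIV-1 Env mediated cell-cell fusion of effector and target cells.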 In kind it is functional, cell-based.
A further assay concerns INS1. As to the kind of experiment: INS-1E survival protection against cytokine death – cell-based, luminescence, retest, dose response (AID 449756).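 Further: cell death triggered by IL-1 beta plus TNF-alpha plus IFN-gamma mixture; protective hits raise ATP signal compared with cytokine alone wells.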 In kind it is functional. The following applies: Rattus norvegicus.
Assay [15] is described as follows: blockers of HIV-1 envelope-mediated cell-cell fusion – cherry-pick, dose response (AID 652057). It counts as functional, cell-based.
Assay [16] can be described thus: viability loss in CEM21 cells – cell-based, CellTiter-Glo luminescence, cherry-picked, cytotoxicity control for viral fusion inhibitor project, dose response (AID 652042).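 Further: potency for signal decrease meaning cytotoxicity.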 In kind it is functional.
Assay [17] has as its system HEK293. Put plainly: membrane integrity loss in HEK cells – cell-based, fluorescence, cytotoxicity control for IDE activator project, dose response (AID 588440).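 Further: cytotoxicity by LDH release measuring loss of membrane integrity.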 It counts as functional. The conditions noted are these: Homo sapiens.
For assay [18], the target named is Neurotensin receptor type 1 (Homo sapiens, UniProt P30989). In kind it is functional.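 Further: Image-based confirmatory dose-response assay measuring agonist activity at NTR1; NTR1-expressing U2OS osteosarcoma cells imaged for beta-arrestin GFP spot formation; agonist potency where compounds increase beta-arrestin recruitment.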
The target of assay [19] is G-protein coupled receptor 55 (Homo sapiens, UniProt Q9Y2T6). Put plainly: selective activators of receptor GPR55 – imaging, U2OS cells, beta-arrestin-GFP redistribution, primary screen (AID 1961). It counts as functional.
Assay [20] can be described thus: off-target signal loss in HeLa-CEM21 co-culture – HeLa F-luc CTL cells, cherry-picked, counter-screen for HIV-1 Env fusion inhibitor project, dose response (AID 652040).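 Further: potency for signal decrease marking cytotoxic or nonspecific inhibition.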 In kind it is functional, cell-based.
Assay [21] concerns the target T6, Insulin-degrading enzyme (Homo sapiens, UniProt P14735).
T6 sequence (P14735 whole entry): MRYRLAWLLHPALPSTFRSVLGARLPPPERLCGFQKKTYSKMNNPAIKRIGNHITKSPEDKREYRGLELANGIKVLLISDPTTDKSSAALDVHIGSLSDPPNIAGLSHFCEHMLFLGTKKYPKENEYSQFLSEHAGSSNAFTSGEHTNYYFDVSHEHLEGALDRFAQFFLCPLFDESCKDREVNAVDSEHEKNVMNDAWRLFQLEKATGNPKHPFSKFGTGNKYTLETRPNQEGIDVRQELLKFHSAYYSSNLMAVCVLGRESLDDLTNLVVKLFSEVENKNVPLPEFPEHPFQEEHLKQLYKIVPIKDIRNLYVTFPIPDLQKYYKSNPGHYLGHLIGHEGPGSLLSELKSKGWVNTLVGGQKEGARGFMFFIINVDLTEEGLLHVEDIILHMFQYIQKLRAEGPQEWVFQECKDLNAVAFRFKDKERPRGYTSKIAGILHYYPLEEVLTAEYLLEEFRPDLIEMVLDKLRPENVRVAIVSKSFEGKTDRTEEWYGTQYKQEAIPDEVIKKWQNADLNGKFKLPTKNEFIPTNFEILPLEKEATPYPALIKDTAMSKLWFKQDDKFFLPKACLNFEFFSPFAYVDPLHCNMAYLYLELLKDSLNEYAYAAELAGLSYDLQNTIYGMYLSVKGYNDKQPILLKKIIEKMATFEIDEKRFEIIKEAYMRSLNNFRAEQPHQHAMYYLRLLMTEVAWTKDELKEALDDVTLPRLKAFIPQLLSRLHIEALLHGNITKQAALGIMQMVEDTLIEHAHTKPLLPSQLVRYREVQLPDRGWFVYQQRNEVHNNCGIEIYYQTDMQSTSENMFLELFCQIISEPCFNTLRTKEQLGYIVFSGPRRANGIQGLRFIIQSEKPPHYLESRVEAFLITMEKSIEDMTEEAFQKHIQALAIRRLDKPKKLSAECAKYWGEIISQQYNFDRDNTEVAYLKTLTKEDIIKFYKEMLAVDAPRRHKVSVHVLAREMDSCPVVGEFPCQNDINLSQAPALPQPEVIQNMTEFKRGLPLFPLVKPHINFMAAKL
As to the kind of experiment: cellular IDE activation of Abeta substrate cleavage – fluorescence polarization, HEK cells, dose response (AID 588439). It counts as functional, cell-based.

A short description of assay [22]: NIH3T3 cell viability loss – ATP luminescence, mouse fibroblasts, counter-screen, dose response (AID 2010).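 Further: cells exposed to compound for about 90 hours before reading.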 In kind it is functional, cell-based.
A short description of assay [23]: Trypanosoma cruzi growth suppression in host cells – NIH3T3 host cells, beta-gal luminescence, confirmation (AID 2044).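 Further: intracellular parasites grown in NIH/3T3 mouse fibroblasts as host cells; luminescent beta-galactosidase reporter signal from transgenic T. cruzi replicating inside host cells; inhibitors lower the luminescence signal.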 It counts as functional, cell-based.
Assay [24] addresses T6, Insulin-degrading enzyme. As to the kind of experiment: recombinant IDE activation, cell-free – biochemical, fluorescence polarization, counter-screen for IDE activator project, dose response (AID 588681).
In assay [25] the test system is HEK293. Put plainly: optical interference in Abeta FP readout, dose response, artefact control for IDE activator project, biochemical, fluorescence polarization (AID 588442). It counts as functional, cell-based. The conditions noted are these: Homo sapiens.

Calls of active or inactive are those of the source.

T2 sequence (Q00975 whole entry): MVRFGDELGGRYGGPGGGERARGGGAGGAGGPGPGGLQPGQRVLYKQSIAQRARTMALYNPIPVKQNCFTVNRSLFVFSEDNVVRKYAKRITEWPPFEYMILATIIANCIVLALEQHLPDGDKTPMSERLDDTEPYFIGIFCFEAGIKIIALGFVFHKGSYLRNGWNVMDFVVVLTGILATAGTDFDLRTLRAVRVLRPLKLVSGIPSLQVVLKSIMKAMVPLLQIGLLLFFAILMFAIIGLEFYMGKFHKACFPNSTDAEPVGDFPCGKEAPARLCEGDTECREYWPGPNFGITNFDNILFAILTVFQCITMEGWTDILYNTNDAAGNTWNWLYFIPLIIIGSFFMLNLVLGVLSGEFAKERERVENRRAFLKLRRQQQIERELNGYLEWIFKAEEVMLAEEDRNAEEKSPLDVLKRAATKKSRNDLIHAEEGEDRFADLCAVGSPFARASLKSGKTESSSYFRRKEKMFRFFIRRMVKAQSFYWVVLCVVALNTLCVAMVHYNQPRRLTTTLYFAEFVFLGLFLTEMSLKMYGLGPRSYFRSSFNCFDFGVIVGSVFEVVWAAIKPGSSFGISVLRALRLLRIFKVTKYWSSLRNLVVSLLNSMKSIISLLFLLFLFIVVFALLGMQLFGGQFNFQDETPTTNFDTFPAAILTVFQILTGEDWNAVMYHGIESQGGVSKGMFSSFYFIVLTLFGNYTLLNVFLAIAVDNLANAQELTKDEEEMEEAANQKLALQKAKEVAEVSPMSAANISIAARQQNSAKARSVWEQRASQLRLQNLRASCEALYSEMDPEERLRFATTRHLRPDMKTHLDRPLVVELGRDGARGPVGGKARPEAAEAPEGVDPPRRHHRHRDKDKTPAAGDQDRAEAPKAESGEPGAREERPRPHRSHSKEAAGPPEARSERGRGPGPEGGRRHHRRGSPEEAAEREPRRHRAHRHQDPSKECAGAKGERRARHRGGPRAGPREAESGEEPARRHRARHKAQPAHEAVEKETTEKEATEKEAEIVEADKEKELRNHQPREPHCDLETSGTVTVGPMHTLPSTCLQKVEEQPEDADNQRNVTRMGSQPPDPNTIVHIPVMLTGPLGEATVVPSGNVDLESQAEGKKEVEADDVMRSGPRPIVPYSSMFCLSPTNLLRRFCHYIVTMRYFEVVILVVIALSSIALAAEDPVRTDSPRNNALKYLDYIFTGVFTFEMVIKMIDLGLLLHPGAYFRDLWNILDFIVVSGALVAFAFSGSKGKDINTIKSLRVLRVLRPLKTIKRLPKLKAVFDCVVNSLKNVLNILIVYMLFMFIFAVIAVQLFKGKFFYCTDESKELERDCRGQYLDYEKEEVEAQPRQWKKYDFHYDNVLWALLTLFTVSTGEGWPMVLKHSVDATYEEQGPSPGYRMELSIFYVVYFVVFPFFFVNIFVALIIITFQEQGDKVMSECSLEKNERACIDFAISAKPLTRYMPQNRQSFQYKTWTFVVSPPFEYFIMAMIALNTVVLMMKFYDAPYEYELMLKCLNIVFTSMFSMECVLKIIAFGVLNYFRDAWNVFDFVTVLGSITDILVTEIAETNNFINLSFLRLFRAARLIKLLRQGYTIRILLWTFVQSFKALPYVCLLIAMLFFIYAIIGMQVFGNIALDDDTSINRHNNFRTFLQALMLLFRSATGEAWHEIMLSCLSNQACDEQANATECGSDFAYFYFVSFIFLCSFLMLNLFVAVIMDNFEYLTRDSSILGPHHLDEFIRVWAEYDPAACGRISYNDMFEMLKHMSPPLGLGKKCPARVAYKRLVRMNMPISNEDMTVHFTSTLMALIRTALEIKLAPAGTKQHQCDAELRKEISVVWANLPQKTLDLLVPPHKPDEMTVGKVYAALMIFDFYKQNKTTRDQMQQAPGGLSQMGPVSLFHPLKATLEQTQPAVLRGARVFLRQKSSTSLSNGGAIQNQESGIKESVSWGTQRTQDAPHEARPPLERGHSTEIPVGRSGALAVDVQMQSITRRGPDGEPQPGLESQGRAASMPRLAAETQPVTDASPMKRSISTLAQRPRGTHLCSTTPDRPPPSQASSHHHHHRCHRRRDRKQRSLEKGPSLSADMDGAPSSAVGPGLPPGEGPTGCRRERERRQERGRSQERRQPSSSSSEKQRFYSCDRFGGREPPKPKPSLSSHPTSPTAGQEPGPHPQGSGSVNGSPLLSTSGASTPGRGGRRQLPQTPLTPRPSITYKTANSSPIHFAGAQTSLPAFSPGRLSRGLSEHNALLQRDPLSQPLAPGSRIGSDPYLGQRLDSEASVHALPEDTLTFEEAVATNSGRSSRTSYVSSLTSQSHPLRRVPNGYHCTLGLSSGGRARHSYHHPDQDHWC
T2 sequence (Q02410 whole entry): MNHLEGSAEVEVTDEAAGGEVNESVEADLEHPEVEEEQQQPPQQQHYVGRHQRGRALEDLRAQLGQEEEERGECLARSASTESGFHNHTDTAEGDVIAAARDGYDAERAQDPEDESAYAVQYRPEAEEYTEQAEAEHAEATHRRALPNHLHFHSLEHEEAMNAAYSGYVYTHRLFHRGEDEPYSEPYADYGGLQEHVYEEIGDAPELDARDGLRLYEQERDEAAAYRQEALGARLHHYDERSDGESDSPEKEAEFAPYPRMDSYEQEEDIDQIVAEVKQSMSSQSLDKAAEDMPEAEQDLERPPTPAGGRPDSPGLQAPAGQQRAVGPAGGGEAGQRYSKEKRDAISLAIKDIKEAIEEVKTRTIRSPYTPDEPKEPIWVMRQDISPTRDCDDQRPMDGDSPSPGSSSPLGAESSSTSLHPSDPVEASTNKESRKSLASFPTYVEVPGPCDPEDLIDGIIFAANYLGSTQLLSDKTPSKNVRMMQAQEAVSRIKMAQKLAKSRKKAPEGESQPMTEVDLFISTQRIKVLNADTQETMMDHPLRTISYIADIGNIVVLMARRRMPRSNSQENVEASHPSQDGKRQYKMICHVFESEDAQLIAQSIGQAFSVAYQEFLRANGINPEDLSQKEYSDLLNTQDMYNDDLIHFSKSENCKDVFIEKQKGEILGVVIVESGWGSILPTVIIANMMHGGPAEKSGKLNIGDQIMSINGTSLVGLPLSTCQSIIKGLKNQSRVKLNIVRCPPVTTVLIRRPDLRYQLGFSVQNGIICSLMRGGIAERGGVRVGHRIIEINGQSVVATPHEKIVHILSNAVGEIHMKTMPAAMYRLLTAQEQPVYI
T5 sequence (P41145 whole entry): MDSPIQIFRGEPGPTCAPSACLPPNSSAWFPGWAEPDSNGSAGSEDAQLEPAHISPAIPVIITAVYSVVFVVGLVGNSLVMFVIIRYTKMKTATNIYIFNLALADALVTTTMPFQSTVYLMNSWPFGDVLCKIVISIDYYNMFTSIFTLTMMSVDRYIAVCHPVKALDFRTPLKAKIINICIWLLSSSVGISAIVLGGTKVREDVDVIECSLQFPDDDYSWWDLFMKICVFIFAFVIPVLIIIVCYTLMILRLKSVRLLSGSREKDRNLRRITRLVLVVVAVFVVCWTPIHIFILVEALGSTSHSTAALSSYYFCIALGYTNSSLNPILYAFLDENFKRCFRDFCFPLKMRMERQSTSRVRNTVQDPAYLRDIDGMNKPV
Sequence of Beta-galactosidase (Q8VNN2 whole entry): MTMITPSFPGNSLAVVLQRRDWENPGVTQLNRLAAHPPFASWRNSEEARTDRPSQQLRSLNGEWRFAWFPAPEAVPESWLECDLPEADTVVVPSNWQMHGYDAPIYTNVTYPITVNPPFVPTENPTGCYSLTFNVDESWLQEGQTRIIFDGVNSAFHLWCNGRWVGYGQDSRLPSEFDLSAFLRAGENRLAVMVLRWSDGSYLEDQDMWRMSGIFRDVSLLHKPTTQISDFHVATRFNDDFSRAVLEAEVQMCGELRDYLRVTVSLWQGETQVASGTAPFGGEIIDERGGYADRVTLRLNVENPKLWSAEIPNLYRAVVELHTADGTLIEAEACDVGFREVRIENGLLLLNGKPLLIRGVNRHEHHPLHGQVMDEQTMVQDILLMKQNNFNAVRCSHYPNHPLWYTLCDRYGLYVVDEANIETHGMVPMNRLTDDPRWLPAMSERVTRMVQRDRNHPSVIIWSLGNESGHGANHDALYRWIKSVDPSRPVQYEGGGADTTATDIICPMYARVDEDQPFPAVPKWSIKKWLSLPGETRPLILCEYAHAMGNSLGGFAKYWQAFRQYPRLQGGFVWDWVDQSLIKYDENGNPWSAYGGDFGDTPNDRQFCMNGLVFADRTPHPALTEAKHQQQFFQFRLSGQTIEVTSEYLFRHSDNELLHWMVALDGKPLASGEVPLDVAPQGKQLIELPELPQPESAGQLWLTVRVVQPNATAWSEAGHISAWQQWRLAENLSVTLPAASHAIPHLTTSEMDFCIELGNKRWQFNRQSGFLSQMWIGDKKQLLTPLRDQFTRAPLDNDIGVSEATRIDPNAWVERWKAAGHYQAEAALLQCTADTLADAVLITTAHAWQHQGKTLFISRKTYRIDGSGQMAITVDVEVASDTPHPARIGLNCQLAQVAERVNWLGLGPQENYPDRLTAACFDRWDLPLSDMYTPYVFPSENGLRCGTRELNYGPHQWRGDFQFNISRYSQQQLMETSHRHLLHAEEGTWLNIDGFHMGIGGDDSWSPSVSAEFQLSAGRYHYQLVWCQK
Sequence of Delta-type opioid receptor (P41143 whole entry): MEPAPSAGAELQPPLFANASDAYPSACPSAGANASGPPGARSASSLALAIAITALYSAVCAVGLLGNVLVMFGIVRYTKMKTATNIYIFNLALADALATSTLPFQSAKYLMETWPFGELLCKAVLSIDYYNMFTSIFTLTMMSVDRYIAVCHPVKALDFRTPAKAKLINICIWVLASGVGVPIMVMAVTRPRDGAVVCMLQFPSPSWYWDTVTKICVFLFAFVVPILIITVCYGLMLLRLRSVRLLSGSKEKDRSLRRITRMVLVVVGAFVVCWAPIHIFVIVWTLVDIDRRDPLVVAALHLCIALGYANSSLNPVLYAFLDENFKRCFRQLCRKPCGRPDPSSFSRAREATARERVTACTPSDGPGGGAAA

With `Cc1ccc(NC(=O)c2sc(=S)n(-c3cc(C)ccc3F)c2N)cc1`, the IC50 in assay [1] was 87.1 µM (active).

For `ClC(Cl)(c1nnnn1-c1ccccc1)c1nnnn1-c1ccccc1`, the half-inhibitory concentration (IC50) was 5.93 µM (active) in assay [2]; > 50 µM (not active) in [3]; 5.47 µM (active) at Large T antigen; 5.41 µM (active) in [5]; > 66.6 µM (inactive) on Beta-galactosidase; > 80 µM (inactive) in [6]. The results for the IC50 in assay [8] and in assay [9] were 4.38 µM (active) and 10 µM (active), respectively. In addition, the concentration giving a half-maximal response (EC50) in assay [4] is 10.8 µM (active); in assay [7], 9.79 µM (active).

With `COc1ccc(NC(=O)CSc2nnc(CNC(=O)COc3ccc(Cl)cc3)o2)c(OC)c1`, on Coagulation factor XII, the IC50 is > 50 µM (inactive).

Consider `CC[C@@](C)(C(=O)Nc1ccc(Br)cc1)N(Cc1ccco1)C(=O)c1ccccn1`, for which the IC50 in assay [10] and in assay [11] was > 32 µM (inactive) each time. Also, the EC50 in assay [12] was 0.0523 µM (active).

Regarding `CC1CCC(C(C)C)C(OC(=O)Cn2c(COc3ccccc3)[n+](C)c3ccccc32)C1` (centres undefined), the AC50 was 8.6 µM (active) in assay [13]; 6.35 µM (active) in [14]; 6.26 µM (active) with INS1; 3.26 µM (active) in [15]; 6.94 µM (active) in [16]; 6.69 µM (active) in assay [20]. In the assay with HEK293 [17], the IC50 was 17.4 µM (inactive). Besides, the EC50 was 14 µM (active) in assay [18]; > 32 µM (inactive) in assay [19]; > 54.7 µM (inactive) on Insulin-degrading enzyme [21]; > 60 µM (not active) in [22]; 0.588 µM (active) in assay [23]; > 54.7 µM (inactive) at Insulin-degrading enzyme [24]. Further, in the assay with HEK293 [25], the EC50 was > 54.7 µM (inactive).
